Results on eight compounds are retold here after ChEMBL document CHEMBL1201862, “PubChem BioAssay data set” (2004).

By IC50 is commonly meant the concentration at which inhibition is half-maximal. What is called AC50 is the concentration at which the activity in the assay is half-maximal.

The structures appear in SMILES notation. Active and inactive are the calls of the source. Where only a bound is given, the exact number is not on record here.

The target of test [1] is T1, Short transient receptor potential channel 4 (Mus musculus, UniProt Q9QUQ5).
T1 sequence (Q9QUQ5 whole entry): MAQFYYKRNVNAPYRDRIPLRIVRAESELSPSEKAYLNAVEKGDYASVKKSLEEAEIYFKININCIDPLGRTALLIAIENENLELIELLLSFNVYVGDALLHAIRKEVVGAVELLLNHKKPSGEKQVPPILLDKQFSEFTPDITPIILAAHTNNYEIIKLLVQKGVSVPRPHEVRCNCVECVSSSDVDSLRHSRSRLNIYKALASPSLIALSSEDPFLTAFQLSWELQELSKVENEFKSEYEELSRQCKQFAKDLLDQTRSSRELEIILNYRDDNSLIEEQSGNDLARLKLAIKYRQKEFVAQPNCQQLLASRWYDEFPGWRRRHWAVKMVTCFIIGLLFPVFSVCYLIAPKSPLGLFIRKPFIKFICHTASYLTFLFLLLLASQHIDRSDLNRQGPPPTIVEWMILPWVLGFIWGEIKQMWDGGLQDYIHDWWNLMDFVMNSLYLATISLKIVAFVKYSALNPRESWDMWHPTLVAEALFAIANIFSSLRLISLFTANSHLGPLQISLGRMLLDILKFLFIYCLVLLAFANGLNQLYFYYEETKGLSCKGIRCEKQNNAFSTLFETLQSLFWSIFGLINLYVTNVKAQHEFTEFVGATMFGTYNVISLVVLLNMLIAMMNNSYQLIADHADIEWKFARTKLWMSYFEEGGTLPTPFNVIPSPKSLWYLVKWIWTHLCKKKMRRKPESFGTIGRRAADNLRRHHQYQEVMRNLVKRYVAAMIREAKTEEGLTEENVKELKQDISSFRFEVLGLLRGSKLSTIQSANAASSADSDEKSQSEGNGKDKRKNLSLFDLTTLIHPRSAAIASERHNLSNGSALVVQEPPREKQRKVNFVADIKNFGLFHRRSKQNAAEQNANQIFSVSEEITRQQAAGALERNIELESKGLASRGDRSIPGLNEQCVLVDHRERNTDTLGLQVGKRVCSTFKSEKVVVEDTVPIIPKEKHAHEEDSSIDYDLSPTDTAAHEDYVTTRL
Description: block of DAMGO-driven TRPC4 calcium entry – cell-based, HEK293 TRPC4/mu-opioid, Fluo-4 calcium, dose response (AID 434942).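 Note: potency of inhibitors blocking the TRPC4 calcium response.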 It is filed as functional.

For a further test, the target named is SUMO E1/E2 (Homo sapiens, UniProt P63279+Q9UBE0+Q9UBT2). The test can be described thus: SAR analysis of SUMOylation using HTRF in an in-Vitro dose response assay. [Related pubchem assays (depositor defined):AID2006, AID2011, AID2018, AID2069, AID2658]. It is filed as functional. (In general: TR-FRET usually uses a lanthanide donor and a delayed reading to cut background.)

Test [2] deals with T2, Voltage-gated N-type calcium channel alpha-1B subunit/Amyloid beta A4 precursor protein-binding family A member 1 (Homo sapiens, UniProt Q00975+Q02410). The test can be described thus: disruptors of Mint-PDZ/N-type channel peptide interaction – biochemical, HTRF, SAR follow-up (AID 2489). It is filed as functional.
In test [3] the target is T2, Voltage-gated N-type calcium channel alpha-1B subunit/Amyloid beta A4 precursor protein-binding family A member 1. The test can be described thus: disruptors of Mint-PDZ/N-type channel peptide interaction – biochemical, HTRF, set 2, SAR follow-up (AID 434980). It is filed as functional.
A further test addresses X-box-binding protein 1 (Homo sapiens, UniProt P17861). It is filed as functional, Cricetulus griseus.
A short description of test [4]: microbe, parasite or virus in culture. The conditions noted are these: Mycobacterium tuberculosis. It is filed as functional.
For test [5], the target named is DNA dC->dU-editing enzyme APOBEC-3G (Homo sapiens, UniProt Q9HC16). Description: Dose Response confirmation of small molecule APOBEC3G DNA Deaminase Inhibitors via a fluorescence-based single-stranded DNA deaminase assay. [Related pubchem assays (depositor defined):AID493012, AID493028]. It is filed as functional.
In test [6] the target is DNA dC->dU-editing enzyme APOBEC-3A (Homo sapiens, UniProt P31941). The test can be described thus: A3A deaminase inhibition for selectivity – biochemical, dose response (AID 504722). It is filed as functional.
For test [7], the target named is T3, Corticotropin-releasing factor receptor 2/Corticotropin-releasing factor-binding protein (Homo sapiens, UniProt P24387+Q13324).
T3 sequence (Q13324 whole entry): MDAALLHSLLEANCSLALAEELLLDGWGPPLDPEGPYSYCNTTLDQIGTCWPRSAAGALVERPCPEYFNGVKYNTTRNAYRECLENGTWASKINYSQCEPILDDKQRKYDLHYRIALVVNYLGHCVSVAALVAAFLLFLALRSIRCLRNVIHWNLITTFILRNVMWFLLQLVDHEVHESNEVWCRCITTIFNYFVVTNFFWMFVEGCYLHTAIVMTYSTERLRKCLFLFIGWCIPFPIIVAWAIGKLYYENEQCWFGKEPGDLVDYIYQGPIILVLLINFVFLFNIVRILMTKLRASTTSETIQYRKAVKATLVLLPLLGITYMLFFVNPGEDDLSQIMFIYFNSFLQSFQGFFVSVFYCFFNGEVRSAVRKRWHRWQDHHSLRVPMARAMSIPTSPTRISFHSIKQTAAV
T3 sequence (P24387 whole entry): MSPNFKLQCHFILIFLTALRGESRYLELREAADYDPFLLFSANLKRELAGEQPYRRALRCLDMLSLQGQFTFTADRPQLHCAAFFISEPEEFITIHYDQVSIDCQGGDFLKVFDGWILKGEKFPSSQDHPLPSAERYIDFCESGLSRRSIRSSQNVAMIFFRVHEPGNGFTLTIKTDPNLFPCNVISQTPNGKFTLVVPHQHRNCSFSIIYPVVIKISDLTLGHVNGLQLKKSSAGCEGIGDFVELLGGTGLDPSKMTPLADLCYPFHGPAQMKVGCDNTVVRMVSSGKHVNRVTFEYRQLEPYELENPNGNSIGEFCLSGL
Description: activators of CRF receptor 2 with binding protein – uHTS hits, confirmation (AID 602473). It is filed as functional. The settings on record: read-out: EC50_Mean.

The target of test [8] is G2/mitotic-specific cyclin-B1 (Homo sapiens, UniProt P14635). Description: HeLa cell cycle G2/M accumulation – FACS, mechanism study for Wee1 degradation inhibitor project, late-stage follow-up, panel member Cyclin B Degradation (AID 2088).
The target in another test is Wee1-like protein kinase (Homo sapiens, UniProt P30291). The test can be described thus: HeLa cell cycle G2/M accumulation – FACS, mechanism study for Wee1 degradation inhibitor project, late-stage follow-up, panel member Wee1 Degradation (AID 2088).
Test [9] has as its target T4, Ubiquitin-conjugating enzyme E2 N (Homo sapiens, UniProt P61088).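 Note: Dose-response confirmation in a TR-FRET assay detecting UBC13-driven polyubiquitin chain formation, inhibition measured.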
T4 sequence (P61088 whole entry): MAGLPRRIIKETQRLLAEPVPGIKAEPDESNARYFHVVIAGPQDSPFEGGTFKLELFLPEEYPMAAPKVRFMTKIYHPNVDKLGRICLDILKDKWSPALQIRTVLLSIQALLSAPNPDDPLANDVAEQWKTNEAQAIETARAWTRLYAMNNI
It is filed as functional.

Test [10] in a line: viability loss of HPDE-C7K cells – cell-based, fluorescence, HTS, primary screen (AID 431). It is filed as functional. The settings on record: Homo sapiens.
The nature of test [11]: A Cell Based Secondary Assay To Explore Cytotoxicity of Compounds that Sensitize Mycobacterium Tuberculosis to Beta-Lactam Antibiotics. It is filed as functional.
The next test addresses T5, Hexokinase HKDC1 (Homo sapiens, UniProt Q2TB90).
T5 sequence (Q2TB90 whole entry): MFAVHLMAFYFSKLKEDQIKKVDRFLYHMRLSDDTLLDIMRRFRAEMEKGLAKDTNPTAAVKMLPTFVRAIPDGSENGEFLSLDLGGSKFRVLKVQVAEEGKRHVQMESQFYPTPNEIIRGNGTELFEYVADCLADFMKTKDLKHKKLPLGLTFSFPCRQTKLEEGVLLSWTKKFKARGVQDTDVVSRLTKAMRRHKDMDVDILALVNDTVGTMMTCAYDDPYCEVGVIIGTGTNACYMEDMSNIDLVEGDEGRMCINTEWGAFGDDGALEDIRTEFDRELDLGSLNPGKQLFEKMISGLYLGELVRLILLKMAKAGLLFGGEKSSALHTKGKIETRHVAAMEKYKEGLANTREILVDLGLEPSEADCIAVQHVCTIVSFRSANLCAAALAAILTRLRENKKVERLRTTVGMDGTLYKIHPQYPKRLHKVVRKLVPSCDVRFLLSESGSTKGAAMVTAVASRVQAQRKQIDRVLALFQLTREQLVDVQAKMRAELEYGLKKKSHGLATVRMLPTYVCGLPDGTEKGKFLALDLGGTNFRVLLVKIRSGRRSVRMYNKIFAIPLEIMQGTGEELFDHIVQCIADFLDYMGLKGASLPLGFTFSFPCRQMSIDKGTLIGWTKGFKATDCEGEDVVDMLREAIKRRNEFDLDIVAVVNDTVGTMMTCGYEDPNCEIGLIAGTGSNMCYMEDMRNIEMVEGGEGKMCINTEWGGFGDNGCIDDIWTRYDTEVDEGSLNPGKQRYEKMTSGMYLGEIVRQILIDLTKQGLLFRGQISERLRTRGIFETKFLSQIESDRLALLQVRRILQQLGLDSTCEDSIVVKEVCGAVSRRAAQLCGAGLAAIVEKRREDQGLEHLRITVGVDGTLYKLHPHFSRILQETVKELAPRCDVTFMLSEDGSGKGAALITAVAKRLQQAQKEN
Description: activation of HKDC1 glucose phosphorylation – biochemical, W721R variant, dose response (AID 504730). It is filed as functional.

The nature of test [12]: HPDE-C7 pancreatic duct cell viability loss – fluorescence, HTS (AID 430). It is filed as functional, cell-based. The conditions noted are these: Homo sapiens.
Another test concerns Escherichia coli. Description: microbe, parasite or virus in culture.
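Throughout, for Absolute IC50 (XBP1): confirmatory dose-response counter-screen serving a CHOP assay.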

Chain of X-box-binding protein 1 (P17861 whole entry): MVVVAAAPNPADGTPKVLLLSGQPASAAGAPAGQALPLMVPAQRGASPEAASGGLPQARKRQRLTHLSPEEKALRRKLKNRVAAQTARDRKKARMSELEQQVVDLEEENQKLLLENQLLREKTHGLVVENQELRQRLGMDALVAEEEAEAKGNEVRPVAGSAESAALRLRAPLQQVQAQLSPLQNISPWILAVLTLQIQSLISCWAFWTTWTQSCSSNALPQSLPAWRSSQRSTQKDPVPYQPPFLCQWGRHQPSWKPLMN
T2 sequence (Q00975 whole entry): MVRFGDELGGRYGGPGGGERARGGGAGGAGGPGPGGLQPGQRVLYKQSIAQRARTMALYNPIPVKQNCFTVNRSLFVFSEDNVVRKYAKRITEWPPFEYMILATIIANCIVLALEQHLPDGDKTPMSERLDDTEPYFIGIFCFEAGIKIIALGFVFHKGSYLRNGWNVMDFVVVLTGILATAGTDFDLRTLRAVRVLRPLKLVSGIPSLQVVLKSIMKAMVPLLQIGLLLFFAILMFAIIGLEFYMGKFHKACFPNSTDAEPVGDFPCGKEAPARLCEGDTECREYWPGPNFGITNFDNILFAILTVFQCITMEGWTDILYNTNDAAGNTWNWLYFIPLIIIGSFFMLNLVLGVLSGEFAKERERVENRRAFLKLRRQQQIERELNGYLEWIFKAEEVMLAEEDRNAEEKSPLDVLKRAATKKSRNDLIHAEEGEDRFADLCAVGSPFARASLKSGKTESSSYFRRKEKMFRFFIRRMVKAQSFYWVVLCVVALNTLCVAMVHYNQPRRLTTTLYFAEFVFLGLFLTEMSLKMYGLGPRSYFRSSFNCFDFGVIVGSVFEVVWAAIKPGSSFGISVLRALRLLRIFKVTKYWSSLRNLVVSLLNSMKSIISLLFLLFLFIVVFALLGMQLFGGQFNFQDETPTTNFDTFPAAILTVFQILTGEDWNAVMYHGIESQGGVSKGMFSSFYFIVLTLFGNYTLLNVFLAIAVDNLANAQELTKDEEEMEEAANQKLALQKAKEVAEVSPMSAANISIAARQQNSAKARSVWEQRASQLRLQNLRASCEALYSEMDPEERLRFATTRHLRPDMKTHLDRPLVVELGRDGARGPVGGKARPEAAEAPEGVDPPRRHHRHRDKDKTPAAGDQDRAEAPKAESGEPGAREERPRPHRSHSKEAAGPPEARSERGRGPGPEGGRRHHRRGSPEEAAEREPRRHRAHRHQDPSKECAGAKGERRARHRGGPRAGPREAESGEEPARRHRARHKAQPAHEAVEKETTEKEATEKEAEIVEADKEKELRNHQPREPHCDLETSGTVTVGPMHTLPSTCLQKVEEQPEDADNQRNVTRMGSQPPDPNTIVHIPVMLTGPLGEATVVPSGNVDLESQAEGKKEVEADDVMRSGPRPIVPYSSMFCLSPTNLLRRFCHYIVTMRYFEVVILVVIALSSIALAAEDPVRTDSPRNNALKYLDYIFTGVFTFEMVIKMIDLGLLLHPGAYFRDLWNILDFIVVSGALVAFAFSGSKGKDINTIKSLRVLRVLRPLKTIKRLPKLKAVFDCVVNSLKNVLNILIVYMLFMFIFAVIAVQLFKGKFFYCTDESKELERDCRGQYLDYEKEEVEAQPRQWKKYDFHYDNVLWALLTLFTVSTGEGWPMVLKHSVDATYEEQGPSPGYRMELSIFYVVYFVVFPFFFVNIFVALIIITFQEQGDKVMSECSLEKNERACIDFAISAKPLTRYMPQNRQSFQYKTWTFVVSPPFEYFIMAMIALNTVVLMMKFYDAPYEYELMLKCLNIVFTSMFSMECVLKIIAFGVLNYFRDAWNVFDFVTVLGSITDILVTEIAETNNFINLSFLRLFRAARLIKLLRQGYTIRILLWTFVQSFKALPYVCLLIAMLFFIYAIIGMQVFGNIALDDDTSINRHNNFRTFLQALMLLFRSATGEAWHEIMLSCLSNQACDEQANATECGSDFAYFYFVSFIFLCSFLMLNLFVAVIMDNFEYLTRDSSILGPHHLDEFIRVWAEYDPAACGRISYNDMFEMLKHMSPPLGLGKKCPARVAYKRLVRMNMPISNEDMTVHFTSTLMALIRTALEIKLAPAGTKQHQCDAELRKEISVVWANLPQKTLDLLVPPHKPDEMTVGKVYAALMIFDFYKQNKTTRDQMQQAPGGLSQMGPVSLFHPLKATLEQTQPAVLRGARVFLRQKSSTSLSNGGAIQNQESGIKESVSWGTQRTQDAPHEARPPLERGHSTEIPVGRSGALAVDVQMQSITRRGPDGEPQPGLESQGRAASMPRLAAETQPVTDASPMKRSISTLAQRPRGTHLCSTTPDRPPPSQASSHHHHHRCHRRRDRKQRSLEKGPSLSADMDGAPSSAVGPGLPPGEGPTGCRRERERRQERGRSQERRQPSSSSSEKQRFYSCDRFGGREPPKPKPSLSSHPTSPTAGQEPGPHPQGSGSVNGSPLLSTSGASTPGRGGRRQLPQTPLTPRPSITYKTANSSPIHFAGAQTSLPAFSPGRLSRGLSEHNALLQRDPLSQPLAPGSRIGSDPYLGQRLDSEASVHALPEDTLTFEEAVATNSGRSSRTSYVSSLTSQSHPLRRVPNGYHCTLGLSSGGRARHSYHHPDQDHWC
T2 sequence (Q02410 whole entry): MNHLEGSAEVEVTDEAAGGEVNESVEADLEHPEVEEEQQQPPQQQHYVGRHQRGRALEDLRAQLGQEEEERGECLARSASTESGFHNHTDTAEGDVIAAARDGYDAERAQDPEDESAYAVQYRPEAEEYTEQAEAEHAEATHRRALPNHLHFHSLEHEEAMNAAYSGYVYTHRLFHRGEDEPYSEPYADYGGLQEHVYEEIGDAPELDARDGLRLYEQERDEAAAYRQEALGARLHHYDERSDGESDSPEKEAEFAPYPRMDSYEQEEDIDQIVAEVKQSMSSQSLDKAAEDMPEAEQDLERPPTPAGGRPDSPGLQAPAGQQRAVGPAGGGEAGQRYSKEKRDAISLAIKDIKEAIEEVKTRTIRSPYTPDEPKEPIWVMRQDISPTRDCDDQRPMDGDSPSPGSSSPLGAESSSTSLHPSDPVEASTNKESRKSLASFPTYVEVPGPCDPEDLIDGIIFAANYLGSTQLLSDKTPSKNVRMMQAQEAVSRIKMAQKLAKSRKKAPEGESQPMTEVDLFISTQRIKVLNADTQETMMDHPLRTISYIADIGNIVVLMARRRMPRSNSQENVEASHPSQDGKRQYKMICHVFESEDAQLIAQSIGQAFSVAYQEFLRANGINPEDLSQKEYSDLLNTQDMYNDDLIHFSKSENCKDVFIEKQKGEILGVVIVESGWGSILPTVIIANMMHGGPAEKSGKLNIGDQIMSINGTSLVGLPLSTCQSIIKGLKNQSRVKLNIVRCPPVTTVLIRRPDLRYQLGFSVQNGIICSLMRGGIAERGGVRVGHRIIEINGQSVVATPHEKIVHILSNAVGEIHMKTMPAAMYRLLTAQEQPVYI
Chain of DNA dC->dU-editing enzyme APOBEC-3G (Q9HC16 whole entry): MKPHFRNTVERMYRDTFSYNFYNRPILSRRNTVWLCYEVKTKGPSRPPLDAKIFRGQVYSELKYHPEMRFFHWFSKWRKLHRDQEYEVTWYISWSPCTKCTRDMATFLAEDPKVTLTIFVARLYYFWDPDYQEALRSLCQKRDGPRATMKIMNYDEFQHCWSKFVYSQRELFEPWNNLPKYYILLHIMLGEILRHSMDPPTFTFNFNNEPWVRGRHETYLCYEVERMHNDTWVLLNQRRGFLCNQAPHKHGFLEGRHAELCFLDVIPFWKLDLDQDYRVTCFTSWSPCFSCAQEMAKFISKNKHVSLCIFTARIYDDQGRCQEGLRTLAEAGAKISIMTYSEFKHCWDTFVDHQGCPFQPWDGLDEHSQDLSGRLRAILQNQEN
Chain of G2/mitotic-specific cyclin-B1 (P14635 whole entry): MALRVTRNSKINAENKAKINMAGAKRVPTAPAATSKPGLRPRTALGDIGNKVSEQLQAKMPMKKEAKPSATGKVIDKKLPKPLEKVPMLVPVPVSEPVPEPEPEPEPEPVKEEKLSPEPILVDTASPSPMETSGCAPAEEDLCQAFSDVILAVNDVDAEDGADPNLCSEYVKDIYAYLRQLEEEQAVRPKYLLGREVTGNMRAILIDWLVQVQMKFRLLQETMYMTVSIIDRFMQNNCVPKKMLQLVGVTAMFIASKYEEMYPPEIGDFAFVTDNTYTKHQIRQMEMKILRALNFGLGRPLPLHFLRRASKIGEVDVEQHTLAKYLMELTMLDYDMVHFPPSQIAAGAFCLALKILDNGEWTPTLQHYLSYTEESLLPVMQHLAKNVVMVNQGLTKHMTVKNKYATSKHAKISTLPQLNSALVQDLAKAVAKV
Chain of DNA dC->dU-editing enzyme APOBEC-3A (P31941 whole entry): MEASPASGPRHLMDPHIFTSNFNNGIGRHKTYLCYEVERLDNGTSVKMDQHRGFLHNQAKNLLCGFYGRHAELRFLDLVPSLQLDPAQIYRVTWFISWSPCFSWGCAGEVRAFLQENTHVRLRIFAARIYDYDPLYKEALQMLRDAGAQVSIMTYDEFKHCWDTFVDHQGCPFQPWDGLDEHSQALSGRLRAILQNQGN

With `Cc1ccc(-c2[nH]c3ccccc3c2SCCN)cc1`, in test [1], the EC50 was 4.73 µM (active).
Regarding `COc1ccc(CNC(=O)CCOC(=O)c2cc(-c3ccco3)nc3ccccc23)cc1`, the IC50 on SUMO E1/E2 was 29.6 µM (active); in test [2], 20.8 µM (active); in test [3] it was 14.4 µM (active).
With `Cc1ccc(C2CN(C)C3(C(=O)Nc4ccccc43)C23COc2ccccc2C3=O)cc1` (centres undefined), at X-box-binding protein 1, the “Absolute IC50 (XBP1)” value was determined as 10 µM. Moreover, the CC50 in test [4] is > 40 µM (active).
For `COc1cc(-c2nc3c(c(C)nn3-c3ccccc3)c3cc(OC)c(OC)cc23)ccc1O`, at X-box-binding protein 1, the “Absolute IC50 (XBP1)” value worked out at 10 µM.
As to `Sc1nnc(-c2ccccn2)n1/N=C/c1ccc(Cl)cc1`, the values for the half-maximal inhibitory concentration (IC50) in test [5] and in [6] were 3.33 µM (active) and > 100 µM (inactive), respectively.
As for `O=C(c1ccc2c(c1)OCO2)C1CCCN(Cc2cc(F)ccc2-n2cccn2)C1` (centres undefined), the EC50 is 5.96 µM (active) in [1] and > 53 µM (inactive) in [7].
As for `Cc1cccc(NC(=O)COc2cc(=O)n(C)c3ccccc23)n1`, the EC50 (in test [8]; on Wee1-like protein kinase) was > 49.7 µM (inactive) in each case.
Consider `CCN(CC)CCCNC(=O)c1c(O)c2ccccc2n(Cc2ccccc2)c1=O`, for which the IC50 in [9] is > 20 µM (inactive). The values for the EC50 (in test [10]; at Hexokinase HKDC1; in test [12]) were > 20 µM (not active), > 80 µM (inactive) and > 20 µM (not active), respectively. Also, the CC50 in test [11] is 32 µM (active). In addition, the concentration at half-maximal activity (AC50) in the test on Escherichia coli is 23.5 µM (active).
